Data reported in the supplement of paper PMC10307832.

Key:
Assay in all cases: relative viability (nuclei count vs DMSO), 5 days (fraction); higher = more cells survive
Adavosertib + Alpelisib = compound: C=CCn1c(=O)c2cnc(Nc3ccc(N4CCN(C)CC4)cc3)nc2n1-c1cccc(C(C)(C)O)n1 [Adavosertib] + Cc1nc(NC(=O)N2CCC[C@H]2C(N)=O)sc1-c1ccnc(C(C)(C)C(F)(F)F)c1 [Alpelisib] (partner 2 µM)
Method in brief: (§1)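 The day after seeding in 1536-well plates, lung cancer cell lines were treated by pin tool with a single drug, or with a fixed anchor-drug dose together with five library-drug doses (not always all listed) in √10 steps. After 5 days, a combined fix-and-stain solution (final 0.05% Triton X-100, 1% formaldehyde, 1 ug/ml Hoechst) was added. Nuclei counted on 4× images gave relative viability as treated counts over vehicle counts, reported as the median of duplicate plates.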

Adavosertib + Dasatinib = compound: C=CCn1c(=O)c2cnc(Nc3ccc(N4CCN(C)CC4)cc3)nc2n1-c1cccc(C(C)(C)O)n1 [Adavosertib] + Cc1nc(Nc2ncc(C(=O)Nc3c(C)cccc3Cl)s2)cc(N2CCN(CCO)CC2)n1 [Dasatinib] (partner 0.075 µM)
Method in brief: as §1

Nelarabine + Crizotinib = compound: COc1nc(N)nc2c1ncn2[C@@H]1O[C@H](CO)[C@@H](O)[C@@H]1O [Nelarabine] + C[C@@H](Oc1cc(-c2cnn(C3CCNCC3)c2)cnc1N)c1c(Cl)ccc(F)c1Cl [Crizotinib] (partner 1 µM)
Method in brief: as §1

Nelarabine + Foretinib = compound: COc1nc(N)nc2c1ncn2[C@@H]1O[C@H](CO)[C@@H](O)[C@@H]1O [Nelarabine] + COc1cc2c(Oc3ccc(NC(=O)C4(C(=O)Nc5ccc(F)cc5)CC4)cc3F)ccnc2cc1OCCCN1CCOCC1 [Foretinib] (partner 0.25 µM)
Method in brief: as §1

| Cell Line | relative viability (Adavosertib + Alpelisib; first compound 0.01 µM) | relative viability (Adavosertib + Alpelisib; first compound 0.03162 µM) | relative viability (Adavosertib + Alpelisib; first compound 0.1 µM) | relative viability (Adavosertib + Alpelisib; first compound 0.3162 µM) | relative viability (Adavosertib + Dasatinib; first compound 0.01 µM) | relative viability (Adavosertib + Dasatinib; first compound 0.03162 µM) | relative viability (Adavosertib + Dasatinib; first compound 0.1 µM) | relative viability (Adavosertib + Dasatinib; first compound 0.3162 µM) | relative viability (Nelarabine + Crizotinib; first compound 0.01 µM) | relative viability (Nelarabine + Crizotinib; first compound 0.03162 µM) | relative viability (Nelarabine + Crizotinib; first compound 0.1 µM) | relative viability (Nelarabine + Crizotinib; first compound 0.3162 µM) | relative viability (Nelarabine + Crizotinib; first compound 1 µM) | relative viability (Nelarabine + Foretinib; first compound 0.01 µM) | relative viability (Nelarabine + Foretinib; first compound 0.03162 µM) | relative viability (Nelarabine + Foretinib; first compound 0.1 µM) | relative viability (Nelarabine + Foretinib; first compound 0.3162 µM) | relative viability (Nelarabine + Foretinib; first compound 1 µM) |
| --- | --- | --- | --- | --- | --- | --- | --- | --- | --- | --- | --- | --- | --- | --- | --- | --- | --- | --- |
| NCI-H647 | 1.1 | 1.1 | 1.02 | 0.508 | 0.2 | 0.21 | 0.259 | 0.107 | 1.37 | 1.22 | 1.13 | 1.41 | 1.14 | 1.22 | 1.02 | 1.26 | 1.26 | 1.37 |
| NCI-H2347 | 1.06 | 1.02 | 1.04 | 0.975 | 0.378 | 0.304 | 0.267 | 0.258 | 0.812 | 0.547 | 0.654 | 0.649 | 0.833 | 0.838 | – | 0.528 | 0.65 | 0.89 |
| NCI-H1395 | 0.975 | 1.1 | 1.03 | 0.732 | 0.427 | 0.407 | 0.416 | 0.439 | – | – | – | – | – | 1.07 | 0.923 | 1.08 | 1.01 | 1.01 |
| NCI-H522 | – | – | – | – | 0.83 | 0.749 | 0.944 | 0.739 | – | – | – | – | – | – | – | – | – | – |
| NCI-H2087 | 1.11 | 1.07 | 1.2 | 0.944 | 0.901 | 0.786 | 0.893 | 0.845 | 1.22 | 0.965 | 0.88 | 0.819 | 0.84 | 1.43 | 0.917 | 1.06 | 1.01 | 1.11 |
| EPLC-272H | 0.918 | 0.893 | 0.868 | 0.723 | 0.312 | 0.339 | 0.363 | 0.205 | 1.01 | 0.928 | 1 | 0.946 | 0.861 | 0.81 | 0.503 | 0.655 | 0.66 | 0.584 |
| NCI-H838 | 1.01 | 1.01 | 0.996 | 1.08 | 0.291 | 0.326 | 0.31 | 0.285 | 0.975 | 0.575 | 0.766 | 1.02 | 0.792 | 1.24 | 0.937 | 1.08 | 1.08 | 1.09 |
| NCI-H661 | 0.492 | 0.968 | 0.503 | 0.595 | 0.864 | 0.846 | 0.75 | 0.347 | – | 0.877 | 0.989 | 0.973 | 0.934 | 1.15 | 1.2 | 1.02 | 1.05 | 1.06 |
| NCI-H2170 | 0.849 | 0.804 | 0.678 | 0.705 | 0.522 | 0.48 | 0.608 | 0.389 | 1.47 | 1.01 | 1.24 | 1.35 | 1.26 | 1.21 | 0.974 | 0.934 | 1.02 | 1.07 |
| NCI-H1703 | 0.367 | 0.361 | 0.304 | 0.147 | – | – | – | – | 0.577 | 0.701 | 0.78 | 1.01 | 0.594 | 0.388 | 0.405 | 0.332 | 0.289 | 0.395 |
| NCI-H1651 | 0.833 | 1.06 | 0.936 | 0.687 | 0.479 | 0.409 | 0.396 | 0.282 | 0.959 | 0.818 | 0.902 | 0.891 | 0.899 | 1.12 | 0.782 | 0.948 | 0.718 | 0.912 |
| LU99A | 0.48 | 0.511 | 0.476 | 0.319 | 0.472 | 0.51 | 0.532 | 0.355 | 0.557 | 0.534 | 0.582 | 0.627 | 0.622 | 0.934 | 0.683 | 0.706 | 0.801 | 0.889 |
| LK-2 | 1.03 | 1.23 | 1.14 | 1.1 | 0.286 | 0.229 | 0.291 | 0.359 | 0.222 | – | 0.223 | 0.205 | 0.206 | 1.3 | – | 1.19 | 1.17 | 1.22 |
| NCI-H1666 | 0.85 | 0.889 | 0.934 | 0.796 | 0.754 | 0.821 | 0.854 | 0.733 | 1.03 | 0.679 | 0.949 | 0.975 | 1.03 | 1.05 | 1.02 | 0.918 | 1 | 1.03 |
| H3255 | 0.648 | 0.689 | 0.716 | 0.668 | 0.347 | 0.382 | 0.352 | 0.352 | 1.04 | 0.821 | 0.906 | 0.881 | 0.913 | – | 1.12 | 0.828 | 0.938 | 0.923 |
| SK-MES-1 | 0.956 | 0.844 | 0.924 | 0.618 | 0.334 | 0.392 | 0.27 | 0.193 | 1.07 | 0.922 | 0.961 | 1.05 | 1.1 | 1.07 | 0.932 | 0.946 | 0.949 | 1.18 |
| NCI-H2023 | 0.512 | 0.602 | 0.548 | 0.39 | 0.584 | 0.583 | 0.471 | 0.226 | 0.831 | 0.672 | 0.59 | 0.578 | 0.605 | 0.942 | 0.737 | 0.876 | 0.899 | 0.818 |
| NCI-H1650 | – | – | – | – | 0.306 | 0.293 | 0.305 | 0.216 | 1.07 | 0.809 | 0.999 | 0.981 | 0.847 | 1.13 | 1.16 | 1.11 | 1.37 | 1.19 |
| LCLC-97TM1 | – | 0.219 | 0.23 | 0.122 | 0.881 | 0.675 | 0.886 | 0.801 | 0.481 | 0.364 | 0.199 | 0.401 | 0.383 | 0.996 | 0.792 | 1.01 | 0.922 | 0.935 |
